From patent US10106523B2, “Amide compound” (ASTELLAS PHARMA INC., priority 2014, dated 2018)

Tests used:
rat EP1 receptor = target: T1, rat EP1 receptor (Rattus norvegicus, UniProt P70597); assay: Selectivity test: antagonistic action on rat EP1 receptor (intracellular Ca2+, HEK-293 cells); format: cell-based; details: PGE2 100 nmol/L, HEK-293 cells stably expressing rat EP1; read-out: Concentration up to which no inhibitory action of 50% or more on the increase in intracellular Ca2+ concentration due to PGE2 through the rat EP1 receptor
T1 construct: expressed in transfected cells
T1 sequence (P70597 1-405): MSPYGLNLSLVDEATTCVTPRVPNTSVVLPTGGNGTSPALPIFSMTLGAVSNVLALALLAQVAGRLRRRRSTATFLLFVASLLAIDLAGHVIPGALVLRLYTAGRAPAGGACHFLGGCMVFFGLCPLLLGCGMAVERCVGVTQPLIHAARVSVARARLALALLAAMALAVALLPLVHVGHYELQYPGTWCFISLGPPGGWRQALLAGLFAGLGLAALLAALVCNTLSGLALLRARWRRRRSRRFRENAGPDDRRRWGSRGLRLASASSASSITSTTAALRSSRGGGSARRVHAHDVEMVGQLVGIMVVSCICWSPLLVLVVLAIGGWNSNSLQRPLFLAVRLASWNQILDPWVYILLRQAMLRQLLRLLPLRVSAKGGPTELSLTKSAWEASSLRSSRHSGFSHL
Experimental: Test Example 9: Evaluation Test of Receptor Antagonistic Action on Rat EP1/EP2/EP3 Receptor (Selectivity Test)
The antagonistic action of Compound A on other subtypes ([…], EP2, and EP3) of the rat-derived PGE2 receptor was evaluated. For EP1 and EP3, the intracellular Ca^2+ amount was used as an indicator, and for EP2, the intracellular cAMP amount was used as an indicator, so as to investigate the action of the test compound.
Construction of Rat EP1, EP2, or EP3 Receptor Expressing Vector: A rat EP1 receptor gene (GenBank accession No.: D88751.1), a rat EP2 receptor gene (GenBank accession No.: NM_031088.1), or a rat EP3 receptor gene (GenBank accession No.: NM_012704.1) were inserted respectively into an expression vector pcDNA3.1-V5-His-TOPO (Invitrogen Inc.).
Construction of Cell Stably Expressing Rat EP1, EP2, or EP3 Receptor: […]
The intracellular Ca^2+ concentration was measured using FLIPR tetra (Molecular Devices, LLC.) with the fluorescence intensity of the Dye as an indicator. […] By taking the Ca^2+ concentration when PGE2 was added to a final concentration of 100 nmol/L as 100%, and taking the Ca^2+ concentration when PGE2 was not added as 0%, the Ca^2+ concentration in percentage with a treatment with the compound was calculated.

human EP4 receptor = target: T2, human EP4 receptor (Homo sapiens, UniProt P35408); assay: Evaluation test of human EP4 receptor affinity ([3H]PGE2 binding, membrane fraction); details: 2.9 nmol/L [3H]PGE2, human EP4 cell membrane fraction, 25° C. 60 minutes; read-out: Ki value with respect to the human EP4 receptor
T2 construct: purchased Chemicon
Experimental: Test Example 2: Evaluation Test of Human EP4 Receptor Affinity
[^3H]PGE2 and a human EP4 cell membrane fraction (Chemicon) were diluted with an assay buffer (50 mmol/L HEPES-NaOH, 5 mmol/L MgCl2, 1 mmol/L CaCl2 (pH 7.4), 0.5% bovine serum albumin (BSA)), and the test compound and unlabeled PGE2 (Sigma) were diluted with DMSO and the assay buffer. The composition of the reaction liquid (250 μL) was set to be as follows: 175 μL of an assay buffer containing [^3H]PGE2 (final concentration of 2.9 nmol/L), 50 μL of a membrane fraction (Chemicon, 40 μg protein/mL), and 25 μL of a test compound (final concentrations of 0.1, 1, 10, 100, and 1000 nmol/L). For the measurement of the non-specific binding, the unlabeled PGE2 was added to a final concentration of 10 μmol/L. The final concentration of DMSO was set to 1%. The reaction liquid was incubated at 25° C. for 60 minutes. The reaction liquid was filtered with a GF/C filter paper (Whatman), using a cell harvester (Brandel). The filter paper after filtration was washed three times with 1 mL of a solution containing 50 mmol/L HEPES-NaOH (pH 7.4), 500 mmol/L NaCl, and 0.1% BSA. […] The radioactive activity was measured using a liquid scintillation counter (Perkin Elmer). […] The specific binding amount was determined by subtracting the non-specific binding amount from the total binding amount. The Ki value was calculated according to a standard method.

T2 sequence (P35408 whole entry): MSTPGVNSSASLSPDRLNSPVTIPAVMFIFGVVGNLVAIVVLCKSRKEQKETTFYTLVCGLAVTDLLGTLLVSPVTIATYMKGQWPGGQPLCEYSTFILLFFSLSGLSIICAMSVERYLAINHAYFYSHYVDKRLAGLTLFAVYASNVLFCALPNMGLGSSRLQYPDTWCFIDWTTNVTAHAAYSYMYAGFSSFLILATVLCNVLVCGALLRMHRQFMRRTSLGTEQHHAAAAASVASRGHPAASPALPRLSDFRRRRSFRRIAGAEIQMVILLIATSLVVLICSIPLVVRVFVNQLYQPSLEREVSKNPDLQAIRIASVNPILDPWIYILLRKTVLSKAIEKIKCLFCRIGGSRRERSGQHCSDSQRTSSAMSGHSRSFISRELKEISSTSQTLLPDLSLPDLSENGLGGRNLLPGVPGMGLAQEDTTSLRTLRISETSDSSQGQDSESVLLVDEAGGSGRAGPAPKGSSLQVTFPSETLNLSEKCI

- IC50 (rat EP1 receptor): > 10000 nM
- Ki (human EP4 receptor): 1.46 nM
Compound: Cc1nn(Cc2cc3ccccc3cn2)c(C(=O)N[C@@H](C)c2ccc(C(=O)O)cc2)c1Br [Compound A, 4-[(1S)-1-({[4-bromo-1-(isoquinolin-3-ylmethyl)-3-methyl-1H-pyrazol-5-yl]carbonyl}amino)ethyl]benzoic acid]
